Experimental data published in patent publication US10464915B2, “Dapagliflozin crystal form and preparation method and use thereof” (Jiangsu Hansoh Pharmaceutical Group Co., Ltd., priority 2016, dated 2019).
Where two headings read alike, the source gives them in different places.

Legend:
[1] = 25° C.
[2] = directly compressed, control pressure 10 KN; crystal form prepared in Example 8; FIG. 4
From the text: The crystal form prepared in the Example 8 of the present invention was directly compressed by a tableting machine, and the control pressure was 10 KN.

- Crystal form (40° C., 0 day): Crystal form E
- Purity (40° C., 0 day): 99.9%
- Crystal form (40° C., 5 days): Crystal form E
- Purity (40° C., 5 days): 99.9%
- Crystal form (40° C., 10 days): Crystal form E
- Purity (40° C., 10 days): 99.9%
- Crystal form (40° C., 30 days): Crystal form E
- Purity (40° C., 30 days): 99.9%
- Crystal form (Lighting (5000 lux), 0 day): Crystal form E
- Purity (Lighting (5000 lux), 0 day): 99.9%
- Crystal form (Lighting (5000 lux), 5 days): Crystal form E
- Purity (Lighting (5000 lux), 5 days): 99.9%
- Crystal form (Lighting (5000 lux), 10 days): Crystal form E
- Purity (Lighting (5000 lux), 10 days): 99.9%
- Crystal form (Lighting (5000 lux), 30 days): Crystal form E
- Purity (Lighting (5000 lux), 30 days): 99.9%
- Time stable (high temperature (40° C.)): at least 30 days
- Time stable (lighting (5000 Lux)): at least 30 days
- Time stable [1]: at least 6 months
- Crystal form ([1]; 0 day): Crystal form E
- Purity ([1]; 0 day): 99.9%
- Crystal form ([1]; 1 month): Crystal form E
- Purity ([1]; 1 month): 99.9%
- Crystal form ([1]; 3 months): Crystal form E
- Purity ([1]; 3 months): 99.9%
- Crystal form ([1]; 6 months): Crystal form E
- Purity ([1]; 6 months): 99.9%
SMILES: CCOc1ccc(Cc2cc([C@@H]3O[C@H](CO)[C@@H](O)[C@H](O)[C@H]3O)ccc2Cl)cc1 [Crystal form E, 2-chloro-5-(β-D-glucopyranosyl-1-yl)-4′-ethoxydiphenylmethane]
- Crystal form transformation under tableting [2]: didn't undergo crystal form transformation
